The results in this text go back to publication PMC5218480 (PLoS ONE, 2017).

This experiment concerns MV-4-11 cells. Kind of experiment: Gene expression microarray analysis (Affymetrix PrimeView) and GSEA. Set-up: RFU PODN (11730768_x_at) / Fold change /veh PODN (11730768_x_at) / RFU LINC00158 (11744669_a_at) / Fold change /veh LINC00158 (11744669_a_at) / RFU DUSP10 (11751237_a_at) / Fold change /veh DUSP10 (11751237_a_at) / RFU ID3 (11757404_x_at) / Fold change /veh ID3 (11757404_x_at) / RFU PLEKHG5 (11737974_s_at) / Fold change /veh PLEKHG5 (11737974_s_at) / RFU LRRC4B (11730491_at) / Fold change /veh LRRC4B (11730491_at) / RFU GIMAP4 (11747438_a_at) / Fold change /veh GIMAP4 (11747438_a_at) / RFU KRT8 (11758183_x_at) / Fold change /veh KRT8 (11758183_x_at) / RFU CNN1 (11734310_a_at) / Fold change /veh CNN1 (11734310_a_at) / RFU VPS37D (11726825_at) / Fold change /veh VPS37D (11726825_at) / RFU C10orf10 (11716522_x_at) / Fold change /veh C10orf10 (11716522_x_at) / RFU KIR2DL2 /// KIR2DL4 /// KIR2DL5A /// KIR2DL5B /// KIR2DS1 /// KIR2DS2 /// KIR2DS3 /// KIR2DS4 /// KIR3DL3 /// KIR3DL3 /// KIR3DS1 (11738374_at) / Fold change /veh KIR2DL2 /// KIR2DL4 /// KIR2DL5A /// KIR2DL5B /// KIR2DS1 /// KIR2DS2 /// KIR2DS3 /// KIR2DS4 /// KIR3DL3 /// KIR3DL3 /// KIR3DS1 (11738374_at) / RFU C1QL1 (11718748_at) / Fold change /veh C1QL1 (11718748_at) / RFU TMPRSS4 (11747572_a_at) / Fold change /veh TMPRSS4 (11747572_a_at) / RFU HAMP (11756126_x_at) / Fold change /veh HAMP (11756126_x_at) / RFU RNFT2 (11725882_a_at) / Fold change /veh RNFT2 (11725882_a_at) / RFU NR4A2 (11747474_a_at) / Fold change /veh NR4A2 (11747474_a_at) / RFU ABCC12 (11746883_a_at) / Fold change /veh ABCC12 (11746883_a_at) / RFU TMEM136 (11760407_x_at) / Fold change /veh TMEM136 (11760407_x_at) / RFU CLDN22 /// WWC2 (11732394_at) / Fold change /veh CLDN22 /// WWC2 (11732394_at) / RFU HLA-DPB1 (11760878_x_at) / Fold change /veh HLA-DPB1 (11760878_x_at) / RFU SPINT1 (11716480_a_at) / Fold change /veh SPINT1 (11716480_a_at) / RFU GAP43 (11754022_s_at) / Fold change /veh GAP43 (11754022_s_at) / RFU A4GNT (11735810_at) / Fold change /veh A4GNT (11735810_at) / RFU PRB3 (11715151_x_at) / Fold change /veh PRB3 (11715151_x_at) / RFU TUBB4B (11761932_at) / Fold change /veh TUBB4B (11761932_at) / RFU CAPN14 (11732068_a_at) / Fold change /veh CAPN14 (11732068_a_at) / RFU TMCC2 (11721928_a_at) / Fold change /veh TMCC2 (11721928_a_at) / RFU IRGQ (11745062_a_at) / Fold change /veh IRGQ (11745062_a_at) / RFU FAM174B (11720279_a_at) / Fold change /veh FAM174B (11720279_a_at) / RFU TMPRSS4 (11748680_a_at) / Fold change /veh TMPRSS4 (11748680_a_at) / RFU FAM212B (11763350_a_at) / Fold change /veh FAM212B (11763350_a_at) / RFU PLEKHG5 (11743358_a_at) / Fold change /veh PLEKHG5 (11743358_a_at) / RFU ZSCAN30 (11745921_a_at) / Fold change /veh ZSCAN30 (11745921_a_at) / RFU CMKLR1 (11741424_a_at) / Fold change /veh CMKLR1 (11741424_a_at) / RFU LOC101060620 /// MAPK8IP1 (11723275_at) / Fold change /veh LOC101060620 /// MAPK8IP1 (11723275_at) / RFU SPTSSB (11747773_x_at) / Fold change /veh SPTSSB (11747773_x_at) / RFU PRSS12 (11739890_at) / Fold change /veh PRSS12 (11739890_at) / RFU BIN1 (11741810_x_at) / Fold change /veh BIN1 (11741810_x_at) / RFU WNT11 (11732464_a_at) / Fold change /veh WNT11 (11732464_a_at) / RFU C10orf10 (11716521_a_at) / Fold change /veh C10orf10 (11716521_a_at) / RFU C5orf56 (11738089_at) / Fold change /veh C5orf56 (11738089_at) / RFU CYB561 (11721691_x_at) / Fold change /veh CYB561 (11721691_x_at) / RFU ANKRD19P (11752326_a_at) / Fold change /veh ANKRD19P (11752326_a_at) / RFU OR2T12 /// OR2T33 /// OR2T8 (11738714_s_at) / Fold change /veh OR2T12 /// OR2T33 /// OR2T8 (11738714_s_at) / RFU VCAN (11748164_a_at) / Fold change /veh VCAN (11748164_a_at) / RFU JSRP1 (11732532_at) / Fold change /veh JSRP1 (11732532_at) / RFU KRTAP10-11 (11738290_x_at) / Fold change /veh KRTAP10-11 (11738290_x_at) / RFU MYO3A (11730013_a_at) / Fold change /veh MYO3A (11730013_a_at) / RFU EBF3 (11725865_a_at) / Fold change /veh EBF3 (11725865_a_at) / RFU CAMK2N1 (11719241_x_at) / Fold change /veh CAMK2N1 (11719241_x_at) / RFU C5orf56 (11738088_a_at) / Fold change /veh C5orf56 (11738088_a_at) / RFU OLFML3 (11715873_a_at) / Fold change /veh OLFML3 (11715873_a_at) / RFU LOC100653217 /// NTM (11731650_a_at) / Fold change /veh LOC100653217 /// NTM (11731650_a_at) / RFU MAPK11 (11762145_a_at) / Fold change /veh MAPK11 (11762145_a_at) / RFU FIZ1 (11724087_x_at) / Fold change /veh FIZ1 (11724087_x_at) / RFU OASL (11726364_x_at) / Fold change /veh OASL (11726364_x_at) / RFU SOX15 (11748057_x_at) / Fold change /veh SOX15 (11748057_x_at) / RFU CD79A (11719716_a_at) / Fold change /veh CD79A (11719716_a_at) / RFU HIST1H1D (11736915_at) / Fold change /veh HIST1H1D (11736915_at) / RFU CASKIN2 (11723855_a_at) / Fold change /veh CASKIN2 (11723855_a_at) / RFU LOC730098 (11760151_x_at) / Fold change /veh LOC730098 (11760151_x_at) / RFU OR4N2 (11742367_at) / Fold change /veh OR4N2 (11742367_at) / RFU PRRT2 (11749266_a_at) / Fold change /veh PRRT2 (11749266_a_at) / RFU SNX32 (11753110_a_at) / Fold change /veh SNX32 (11753110_a_at) / RFU CDHR5 (11726645_a_at) / Fold change /veh CDHR5 (11726645_a_at) / RFU RCAN1 (11760418_a_at) / Fold change /veh RCAN1 (11760418_a_at) / RFU FAM167A (11723789_a_at) / Fold change /veh FAM167A (11723789_a_at) / RFU FAM26E (11764081_at) / Fold change /veh FAM26E (11764081_at) / RFU ISYNA1 (11749810_s_at) / Fold change /veh ISYNA1 (11749810_s_at) / RFU ACY1 (11761880_at) / Fold change /veh ACY1 (11761880_at) / RFU 11764098_at / Fold change /veh 11764098_at / RFU SAMD14 (11745864_x_at) / Fold change /veh SAMD14 (11745864_x_at) / RFU NPB (11741838_a_at) / Fold change /veh NPB (11741838_a_at) / RFU TMPRSS6 (11731388_a_at) / Fold change /veh TMPRSS6 (11731388_a_at) / RFU KRTAP10-2 (11738614_at) / Fold change /veh KRTAP10-2 (11738614_at) / RFU ARHGAP8 /// PRR5-ARHGAP8 (11727945_x_at) / Fold change /veh ARHGAP8 /// PRR5-ARHGAP8 (11727945_x_at) / RFU KRTAP5-7 /// NADSYN1 (11734609_at) / Fold change /veh KRTAP5-7 /// NADSYN1 (11734609_at) / RFU RASL12 (11751679_a_at) / Fold change /veh RASL12 (11751679_a_at) / RFU CDKN2B (11736163_a_at) / Fold change /veh CDKN2B (11736163_a_at) / RFU PRF1 (11729649_at) / Fold change /veh PRF1 (11729649_at) / RFU, ZNF638 /// ZNF638-IT1 / Fold change vs veh, ZNF638 /// ZNF638-IT1 / RFU, PANK3 / Fold change vs veh, PANK3 / RFU, SH3YL1 / Fold change vs veh, SH3YL1 / RFU, ZEB2 / Fold change vs veh, ZEB2 / RFU, NRIP1 / Fold change vs veh, NRIP1 / RFU, PTTG1IP / Fold change vs veh, PTTG1IP / RFU, CAPN2 / Fold change vs veh, CAPN2 / RFU, MED14 / Fold change vs veh, MED14 / RFU, SNORA58 / Fold change vs veh, SNORA58 / RFU, C1orf63 / Fold change vs veh, C1orf63 / RFU, LRRFIP1 / Fold change vs veh, LRRFIP1 / RFU, NDUFAF7 / Fold change vs veh, NDUFAF7 / RFU, SLC12A2 / Fold change vs veh, SLC12A2 / RFU, IBTK / Fold change vs veh, IBTK / RFU, ESF1 / Fold change vs veh, ESF1 / Fold change vs veh, TMEM50B / RFU, TAOK1 / Fold change vs veh, TAOK1 / RFU, ACBD3 / Fold change vs veh, ACBD3 / RFU, TMA16 / Fold change vs veh, TMA16 / RFU, RWDD3 / Fold change vs veh, RWDD3 / RFU, BCAT1 / Fold change vs veh, BCAT1 / RFU, EDEM3 / Fold change vs veh, EDEM3 / RFU, TMEM33 / Fold change vs veh, TMEM33 / RFU, WDR75 / Fold change vs veh, WDR75 / RFU, AHCTF1 / Fold change vs veh, AHCTF1 / RFU, TFRC / Fold change vs veh, TFRC / RFU, ZDHHC17 / Fold change vs veh, ZDHHC17 / RFU, NOM1 / Fold change vs veh, NOM1 / RFU, ARL8B / Fold change vs veh, ARL8B / RFU, ZBTB11 / Fold change vs veh, ZBTB11 / RFU, TAMM41 / Fold change vs veh, TAMM41 / RFU, KIAA1704 /// LOC100996395 / Fold change vs veh, KIAA1704 /// LOC100996395 / RFU, ING1 / Fold change vs veh, ING1 / RFU, TRMT61B / Fold change vs veh, TRMT61B / RFU, FUBP3 / Fold change vs veh, FUBP3 / RFU, TP53 / Fold change vs veh, TP53 / RFU, TNKS2 / Fold change vs veh, TNKS2 / RFU, ZFP14 / Fold change vs veh, ZFP14 / RFU, ACTR2 / Fold change vs veh, ACTR2 / RFU, PPP3R1 / Fold change vs veh, PPP3R1 / RFU, PIK3R1 / Fold change vs veh, PIK3R1 / RFU, HNRNPA1 / Fold change vs veh, HNRNPA1 / RFU, RNF170 / Fold change vs veh, RNF170 / RFU, ZNF28 / Fold change vs veh, ZNF28 / RFU, RNGTT / Fold change vs veh, RNGTT / RFU, OGT / Fold change vs veh, OGT / RFU, BRD1 / Fold change vs veh, BRD1 / RFU, MARS / Fold change vs veh, MARS / RFU, ZNF655 / Fold change vs veh, ZNF655 / RFU, FAHD1 / Fold change vs veh, FAHD1 / RFU, BDP1 / Fold change vs veh, BDP1 / RFU, LRRCC1 / Fold change vs veh, LRRCC1 / RFU, ARID1A / Fold change vs veh, ARID1A / RFU, ZNF146 / Fold change vs veh, ZNF146 / RFU, ZNF330 / Fold change vs veh, ZNF330 / RFU, GPN3 / Fold change vs veh, GPN3 / RFU, C9orf123 / Fold change vs veh, C9orf123 / RFU, N4BP2L2 / Fold change vs veh, N4BP2L2 / RFU, ARFIP1 / Fold change vs veh, ARFIP1 / RFU, FAM179B / Fold change vs veh, FAM179B / RFU, BCL10 / Fold change vs veh, BCL10 / RFU, UHRF1BP1L / Fold change vs veh, UHRF1BP1L / RFU, BET1 / Fold change vs veh, BET1 / RFU, CNOT2 / Fold change vs veh, CNOT2 / RFU, ZNF268 / Fold change vs veh, ZNF268 / Fold change vs veh, ZNF507 / RFU, DGCR2 / Fold change vs veh, DGCR2 / RFU, WDSUB1 / Fold change vs veh, WDSUB1 / Fold change vs veh, HSP90B1 /// MIR3652 / RFU, ADSS / Fold change vs veh, ADSS / RFU, GK / Fold change vs veh, GK / RFU, ZNF148 / Fold change vs veh, ZNF148 / RFU, TAF9 / Fold change vs veh, TAF9 / RFU, SLC1A5 / Fold change vs veh, SLC1A5 / RFU, SLMO2 / Fold change vs veh, SLMO2 / RFU, ABCC4 / Fold change vs veh, ABCC4 / RFU, LOC101060439 /// RAP1B / Fold change vs veh, LOC101060439 /// RAP1B / RFU, RFX7 / Fold change vs veh, RFX7 / RFU, GTPBP10 / Fold change vs veh, GTPBP10 / RFU, CNEP1R1 / Fold change vs veh, CNEP1R1 / RFU, BIVM-ERCC5 /// ERCC5 / Fold change vs veh, BIVM-ERCC5 /// ERCC5 / RFU, ILF3 / Fold change vs veh, ILF3 / RFU 11762660_at / Fold change /veh 11762660_at / RFU VCAN (11757783_s_at) / Fold change /veh VCAN (11757783_s_at) / RFU DDX43 (11728927_at) / Fold change /veh DDX43 (11728927_at) / RFU KRT8 (11758188_x_at) / Fold change /veh KRT8 (11758188_x_at) / RFU NKD1 (11759106_at) / Fold change /veh NKD1 (11759106_at) / RFU SRD5A1 (11742802_a_at) / Fold change /veh SRD5A1 (11742802_a_at) / RFU TPSAB1 /// TPSB2 (11721975_s_at) / Fold change /veh TPSAB1 /// TPSB2 (11721975_s_at) / RFU GSTM3 (11746129_a_at) / Fold change /veh GSTM3 (11746129_a_at) / RFU IL23R (11737362_x_at) / Fold change /veh IL23R (11737362_x_at) / RFU TMEM51 (11727254_a_at) / Fold change /veh TMEM51 (11727254_a_at) / RFU PIWIL2 (11732686_x_at) / Fold change /veh PIWIL2 (11732686_x_at) / RFU ORM1 (11744905_x_at) / Fold change /veh ORM1 (11744905_x_at) / RFU CCDC152 (11743942_at) / Fold change /veh CCDC152 (11743942_at) / RFU ECM1 (11717891_a_at) / Fold change /veh ECM1 (11717891_a_at) / RFU IL23R (11748794_a_at) / Fold change /veh IL23R (11748794_a_at) / RFU TNFAIP8L3 (11732012_x_at) / Fold change /veh TNFAIP8L3 (11732012_x_at) / RFU MBOAT4 (11741988_at) / Fold change /veh MBOAT4 (11741988_at) / RFU 11764193_at / Fold change /veh 11764193_at / RFU TMEM53 (11763286_at) / Fold change /veh TMEM53 (11763286_at) / RFU MAGEB2 (11727129_at) / Fold change /veh MAGEB2 (11727129_at) / RFU TMEM200A (11744735_a_at) / Fold change /veh TMEM200A (11744735_a_at) / RFU CCDC152 (11751479_a_at) / Fold change /veh CCDC152 (11751479_a_at) / RFU FAM211A (11726209_a_at) / Fold change /veh FAM211A (11726209_a_at) / RFU RGS16 (11746705_a_at) / Fold change /veh RGS16 (11746705_a_at) / RFU VCAN (11755009_s_at) / Fold change /veh VCAN (11755009_s_at) / RFU RHOB (11743442_s_at) / Fold change /veh RHOB (11743442_s_at) / RFU RGS16 (11720943_a_at) / Fold change /veh RGS16 (11720943_a_at) / RFU RGS16 (11720944_at) / Fold change /veh RGS16 (11720944_at) / RFU, VPS4B / Fold change vs veh, VPS4B / RFU, CREB1 / Fold change vs veh, CREB1 / RFU, DNAJC13 / Fold change vs veh, DNAJC13 / RFU, GNAQ / Fold change vs veh, GNAQ / RFU, CDK5R1 / Fold change vs veh, CDK5R1 / RFU, ZRANB3 / Fold change vs veh, ZRANB3 / RFU, CUL4A / Fold change vs veh, CUL4A / RFU, CCNY / Fold change vs veh, CCNY / RFU, UFL1 / Fold change vs veh, UFL1 / RFU, COG3 / Fold change vs veh, COG3 / RFU, DIAPH2 / Fold change vs veh, DIAPH2 / RFU, SKA2 / Fold change vs veh, SKA2 / RFU, AFF3 / Fold change vs veh, AFF3 / RFU, LMF1 / Fold change vs veh, LMF1 / RFU, IPO11 / Fold change vs veh, IPO11 / RFU, DFFB / Fold change vs veh, DFFB / RFU, FOXP1 / Fold change vs veh, FOXP1 / RFU, CARD8 / Fold change vs veh, CARD8 / RFU, STRN3 / Fold change vs veh, STRN3 / RFU, ADK / Fold change vs veh, ADK / RFU, RASSF2 / Fold change vs veh, RASSF2 / RFU, WIPF1 / Fold change vs veh, WIPF1 / RFU, LARP1B / Fold change vs veh, LARP1B / RFU, RASA1 / Fold change vs veh, RASA1 / RFU, RB1 / Fold change vs veh, RB1 / RFU, PPFIA1 / Fold change vs veh, PPFIA1 / RFU, MAT2A / Fold change vs veh, MAT2A / RFU, CCT5 / Fold change vs veh, CCT5 / RFU, WDR92 / Fold change vs veh, WDR92 / RFU, CUX1 / Fold change vs veh, CUX1 / RFU, TTC7A / Fold change vs veh, TTC7A / RFU, TMEM135 / Fold change vs veh, TMEM135 / RFU, DEPTOR / Fold change vs veh, DEPTOR / RFU, CPM / Fold change vs veh, CPM / RFU, DNAJB6 / Fold change vs veh, DNAJB6 / RFU, CACNA2D3 / Fold change vs veh, CACNA2D3 / RFU, DTX4 / Fold change vs veh, DTX4 / RFU, TFCP2 / Fold change vs veh, TFCP2 / RFU, GMCL1 /// GMCL1P1 / Fold change vs veh, GMCL1 /// GMCL1P1 / RFU, AEBP2 / Fold change vs veh, AEBP2 / RFU, SNHG1 /// SNORD22 /// SNORD25 /// SNORD26 /// SNORD27 /// SNORD28 /// SNORD29 /// SNORD31 / Fold change vs veh, SNHG1 /// SNORD22 /// SNORD25 /// SNORD26 /// SNORD27 /// SNORD28 /// SNORD29 /// SNORD31 / Fold change (Aza/veh), C12orf56 (ProbeSet 11735607_a_at) / Fold change (ACY-1035/veh), C12orf56 (ProbeSet 11735607_a_at) / Fold change (Aza/veh), FGFR1OP (ProbeSet 11751329_s_at) / Fold change (ACY-1035/veh), FGFR1OP (ProbeSet 11751329_s_at) / Fold change (Aza/veh), VPS36 (ProbeSet 11739960_a_at) / Fold change (ACY-1035/veh), VPS36 (ProbeSet 11739960_a_at) / RFU SYPL1 (11715823_x_at) / Fold change /veh SYPL1 (11715823_x_at) / RFU IGFBP7 (11715501_s_at) / Fold change /veh IGFBP7 (11715501_s_at) / RFU REEP3 (11722064_at) / Fold change /veh REEP3 (11722064_at) / RFU IGLL1 (11728026_x_at) / Fold change /veh IGLL1 (11728026_x_at): dose or concentration left out as unconfirmed. The experiment is classed as cell-based, human. Particulars: MV-4-11 cells, 48 hours.

Regarding `Nc1ncn([C@@H]2O[C@H](CO)[C@@H](O)[C@H]2O)c(=O)n1` [azacitidine], the “Fold change /veh CDKN2B (11736163_a_at)” value is listed as 1.08.
